Data on two substances can be found in patent US4716150A, “Synthetic peptides and use thereof in preparing calmodulin antisera” (Vanderbilt University, priority 1985, dated 1987).

Assay [1] deals with anti-calmodulin serum. Particulars: one antiserum; vertebrate calmodulin residues 137 to 143; cited from earlier work.
Assay [2] has as its system intact calmodulin. Particulars: cited from earlier work.
For assay [3], the system named is intact calmodulin. The assay can be described thus: Injection of immunogen into laboratory rabbits to elicit antisera against calmodulin. The assay is classed as in vivo. Particulars: merely injecting calmodulin into laboratory rabbits. The text has this: Using one of the rabbit antisera, we proceeded to test peptide segments encompasssing the entire calmodulin molecule to locate one or more immunoreactive sites in the protein. See Van Eldik, L. J. and Watterson D. M. "Reproducible Production of Antiserum against Vertebrate Calmodulin and Determination of the Immunoreactive Site" Journal of Biological Chemistry Volume 256 (9), pp. 4205-4210 (1981). Upon completion of these studies we proposed than an immunoreactive site of calmodulin is contained in an 18 residue region (residues 127-144) within the COOH-terminal domain of calmodulin.
However, although the minimal immunoreactive heptapeptide site of calmodulin met both of the above requirements, we were unable to produce anti-calmodulin sera when we injected laboratory rabbits with a synthetic heptapeptide corresponding to the immunoreactive site of the protein. […] Van Eldik, et al. "Elucidation of a Minimal Immunoreactive Site of Vertebrate Calmodulin" (cited above).

Turning to “asparagine-tyrosine-glutamic acid-glutamic acid-phenylalanine-valine-glutamine [synthetic heptapeptide]”, the “immunoreactivity with anti-calmodulin serum compared with the entire protein” value in assay [1] is “as immunoreactive as the entire 148-residue protein”. Also, the “reactivity of the elicited antibodies” value in assay [2] (antibodies from injected rabbits tested against synthetic heptapeptide and intact calmodulin) is listed as “reacted with the synthetic heptapeptide but not with intact calmodulin”. In assay [2] (laboratory rabbits injected with synthetic heptapeptide), the “antibody response in rabbits (immunogenicity)” value is “elicited an antibody response”.

Turning to calmodulin, in assay [3], the “anti-calmodulin serum titer after injection” value is given as “inability to develop an anti-calmodulin serum of useful titer”.
